Test results taken from patent US20240423973A1, “COMPOUNDS, PHARMACEUTICAL COMPOSITIONS, AND METHODS FOR THE TREATMENT, PREVENTION, OR MANAGEMENT OF HYPERPROLIFERATIVE DISORDERS” (VINCERX PHARMA GMBH, priority 2021, published 2024).
Structures can show the parent of a compound that is named as a salt. *1 amine or outer side, *2 acyl side, *3 side chain or, on linkers, in order; H or OH if unused. Where a SMILES comes first, the peptide text is derived from it. [ ]: non-standard residue; d: D form. The star is where a group is joined. X1 = CCCNC(=O)Nc1cccc(S(=O)(=O)Nc2cccc([C@@H](CC(=O)O)NC(=O)Nc3ccc(N*)cc3)c2)c1; Camptothecin(7-Et) = CCc1c2c(nc3ccccc13)-c1cc3c(c(=O)n1C2)COC(=O)[C@@]3(CC)O*; CO = O=C([*:1])[*:2]; Sar = CNCC(=O)O

How the values were obtained:
Assay in all cases: Cytotoxicity assay (Version 2), automated, AC50
[1] = system: SUM149; format: cell-based; details: SUM149 cells, Version 2, activity concentration at -50%, 4 parameter Hill-fit
Procedure: (§1) Cultivation of cells was performed according to standard procedures with the media recommended by the provider. The cells, in a total volume of 100 μL, were seeded in a 96-well plate with a white bottom (#3610). After a 24 h incubation period at 37° C. and 5% CO2, the medium was exchanged by adding 90 μL fresh medium. The treatment started by adding the test compound in 10 μL of culture medium to the cells in triplicates. Concentrations ranging from 10^−5 M to 10^−13 M were chosen. Two identically treated sets of samples were prepared. One set was treated with the test compound alone, whereas to the second set the compound and 10 nM elastase was added followed by a 72 h incubation period at 37° C. and 5% CO2. The proliferation was detected using the MTT assay (ATCC). At the end of the incubation period the MTT reagent was added to all samples for 4h. Lysis of the cells followed by addition of the detergent was done overnight. The formed dye was detected at 570 nm. The proliferation of untreated but otherwise identically handled cells was define as the […].
(§2) The Cytotoxicity assay (Version 2) was performed as above described. Some changes were applied as the assays were performed in an automated fashion and the IC50 values determination was changed. Here the change in metabolic activity of the cells, in percent, was calculated by normalization of the measured values to the absorbance values of medium containing wells without cells (=−100% ) and the absorbance of the DMSO-treated cells (=0% ). AC50 values (activity concentration at -50% o) were determined by means of a 4 parameter Hill-fit using GeneData Screener software.

[2] = system: 786-O; format: cell-based, human; details: 786-O cells, Version 2, activity concentration at -50%, 4 parameter Hill-fit
Procedure: as §1, §2

[3] = system: NCI H292; format: cell-based, human; details: NCI H292 cells, Version 2, activity concentration at -50%, 4 parameter Hill-fit
Procedure: as §1, §2

[4] = system: HT29; format: cell-based, human; details: HT29 cells, Version 2, activity concentration at -50%, 4 parameter Hill-fit
Procedure: as §1, §2

Structure (SMILES)	AC50 ([1]; no elastase)	AC50 ([1]; with elastase)	AC50 ([2]; no elastase)	AC50 ([2]; with elastase)	AC50 ([3]; no elastase)	AC50 ([3]; with elastase)	AC50 ([4]; no elastase)	AC50 ([4]; with elastase)
CCCNC(=O)Cc1cccc(S(=O)(=O)Nc2cccc([C@@H](CC(=O)O)NC(=O)Nc3ccc(NC(=O)NCCOCCOCCOCCC(=O)NCCNC(=O)[C@H](CCC(=O)NCCNC(=O)CCOCCOCCOCCNC(=O)Nc4ccc(NC(=O)N[C@H](CC(=O)O)c5cccc(NS(=O)(=O)c6cccc(NC(=O)NCCC)c6)c5)cc4)NC(=O)CCCC(=O)NCCN(C)CCN(C)CCN(C)CC(=O)NCC(=O)N4CCC[C@H]4C(=O)N[C@H](C(=O)O[C@]4(CC)C(=O)OCc5c4cc4n(c5=O)Cc5c-4nc4ccccc4c5CC)C(C)C)cc3)c2)c1 [Compound A11]	≤ 10 nM	≤ 10 nM	11 to 100 nM	≤ 10 nM	≤ 10 nM	≤ 10 nM	110 to 1000 nM	11 to 100 nM
CCCNC(=O)Nc1cccc(S(=O)(=O)Nc2cccc([C@@H](CC(=O)O)NC(=O)Nc3ccc(NC(=O)N(C)CC(=O)N(C)CC(=O)N(C)CC(=O)N(C)CC(=O)N(C)CC(=O)N(C)CC(=O)N(C)CC(=O)N(C)CC(=O)N[C@@H](CC(=O)O)C(=O)N4CCC[C@H]4C(=O)N[C@H](C(=O)O[C@]4(CC)C(=O)OCc5c4cc4n(c5=O)Cc5c-4nc4ccccc4c5CC)C(C)C)cc3)c2)c1 [Compound D3] ({X1-CO}-[Sar][Sar][Sar][Sar][Sar][Sar][Sar][Sar]DPV-{Camptothecin(7-Et)})	110 to 1000 nM	≤ 10 nM	110 to 1000 nM	≤ 10 nM	110 to 1000 nM	≤ 10 nM	110 to 1000 nM	11 to 100 nM
CCCNC(=O)Nc1cccc(S(=O)(=O)Nc2cccc([C@@H](CC(=O)O)NC(=O)Nc3ccc(NC(=O)NCCOCCOCCOCCC(=O)N[C@@H](CC(=O)OCCC[N+](C)(C)C)C(=O)N4CCC[C@H]4C(=O)N[C@H](C(=O)O[C@]4(CC)C(=O)OCc5c4cc4n(c5=O)Cc5c-4nc4ccccc4c5CC)C(C)C)cc3)c2)c1 [Compound C5, trifluoroacetate]	110 to 1000 nM	≤ 10 nM	110 to 1000 nM	≤ 10 nM	110 to 1000 nM	≤ 10 nM	> 1000 nM	11 to 100 nM
CCCNC(=O)Nc1cccc(S(=O)(=O)Nc2cccc([C@@H](CC(=O)O)NC(=O)Nc3ccc(NC(=O)NCCOCCOCCOCCC(=O)N[C@@H](CCCCNC(=O)CCCC(=O)N(C)CC(=O)N(C)CC(=O)N(C)CC(=O)N(C)CC(=O)N(C)CC(=O)N(C)CC(=O)N(C)CC(=O)N(C)CC(=O)O)C(=O)NCCOCCOCCOCCC(=O)N[C@@H](CC(=O)O)C(=O)N4CCC[C@H]4C(=O)N[C@H](C(=O)O[C@]4(CC)C(=O)OCc5c4cc4n(c5=O)Cc5c-4nc4ccccc4c5CC)C(C)C)cc3)c2)c1 [Compound E4]	110 to 1000 nM	≤ 10 nM	110 to 1000 nM	≤ 10 nM	110 to 1000 nM	≤ 10 nM	110 to 1000 nM	11 to 100 nM
CCCNC(=O)Nc1cccc(S(=O)(=O)Nc2cccc([C@@H](CC(=O)O)NC(=O)Nc3ccc(NC(=O)N(C)CC(=O)N(C)CC(=O)N(C)CC(=O)N(C)CC(=O)N[C@@H](CC(=O)O)C(=O)N4CCC[C@H]4C(=O)N[C@H](C(=O)O[C@]4(CC)C(=O)OCc5c4cc4n(c5=O)Cc5c-4nc4ccccc4c5CC)C(C)C)cc3)c2)c1 [Compound B6] ({X1-CO}-[Sar][Sar][Sar][Sar]DPV-{Camptothecin(7-Et)})	110 to 1000 nM	≤ 10 nM	110 to 1000 nM	≤ 10 nM	110 to 1000 nM	≤ 10 nM	> 1000 nM	11 to 100 nM
CCCNC(=O)Nc1cccc(S(=O)(=O)Nc2cccc([C@H](CC(=O)O)NC(=O)Nc3ccc(NC(=O)NCCOCCOCCOCCC(=O)NCCNC(=O)CC[C@H](NC(=O)CCCC(=O)NCCN(C)CCN(C)CCN(C)CC(=O)NCC(=O)N4CCC[C@H]4C(=O)N[C@H](C(=O)O[C@]4(CC)C(=O)OCc5c4cc4n(c5=O)Cc5c-4nc4ccccc4c5CC)C(C)C)C(=O)NCCNC(=O)CCOCCOCCOCCNC(=O)Nc4ccc(NC(=O)N[C@@H](CC(=O)O)c5cccc(NS(=O)(=O)c6cccc(NC(=O)NCCC)c6)c5)cc4)cc3)c2)c1 [Compound A12]	≤ 10 nM	≤ 10 nM	≤ 10 nM	≤ 10 nM	11 to 100 nM	≤ 10 nM	110 to 1000 nM	11 to 100 nM
CCCNC(=O)Nc1cccc(S(=O)(=O)Nc2cccc([C@@H](CC(=O)O)NC(=O)Nc3ccc(NC(=O)NCCOCCOCCOCCC(=O)NCCNC(=O)CC[C@H](NC(=O)CCCC(=O)NCCN(C)CCN(C)CCN(C)CC(=O)N[C@@H](CC(N)=O)C(=O)N4CCC[C@H]4C(=O)N[C@H](C(=O)O[C@]4(CC)C(=O)OCc5c4cc4n(c5=O)Cc5c-4nc4ccccc4c5CC)C(C)C)C(=O)NCCNC(=O)CCOCCOCCOCCNC(=O)Nc4ccc(NC(=O)N[C@H](CC(=O)O)c5cccc(NS(=O)(=O)c6cccc(NC(=O)NCCC)c6)c5)cc4)cc3)c2)c1 [Compound A9]	110 to 1000 nM	≤ 10 nM	110 to 1000 nM	≤ 10 nM	110 to 1000 nM	≤ 10 nM	> 1000 nM	11 to 100 nM
CCCNC(=O)Nc1cccc(S(=O)(=O)Nc2cccc([C@@H](CC(=O)O)NC(=O)Nc3ccc(NC(=O)NCCOCCOCCOCCC(=O)N[C@@H](CC(=O)O)C(=O)N4CCC[C@H]4C(=O)N[C@@H](C)C(=O)O[C@]4(CC)C(=O)OCc5c4cc4n(c5=O)Cc5c-4nc4ccccc4c5CC)cc3)c2)c1 [Compound C10, disodium (4S)-4,11-diethyl-3,14-dioxo-3,4,12,14-tetrahydro-1H-pyrano[3′,4′:6,7]indolizino[1,2-b]quinolin-4-yl 1-[(2S)-2-(carboxylatomethyl)-17-{4-[({(1R)-2-carboxylato-1-[3-({3-[(propylcarbamoyl)amino]benzene-1-sulfonyl}amino)phenyl]ethyl}carbamoyl)amino]anilino}-4,17-dioxo-7,10,13-trioxa-3,16-diazaheptadecanan-1-oyl]-L-prolyl-L-alaninate]	11 to 100 nM	≤ 10 nM	11 to 100 nM	≤ 10 nM	11 to 100 nM	≤ 10 nM	110 to 1000 nM	11 to 100 nM
